The text below walks through data of patent US20080096807A1, “Cyclic vasoactive intestinal peptide receptor-2 agonists” (priority 2006, published 2008).

Numbered stars: 1 amine (or outer) side, 2 acyl side, 3 side chain; on linkers, the order of the positions; unused ones are H or OH. Bridge positions count the residues as written; N and C are the ends. Square brackets hold non-standard residues; d marks the D form. Peptide text beside a SMILES is read from it. ξ: configuration not given here. X1 = N=C(N)CNCC[C@H](N[*:1])C(=O)[*:2]; Thr(3ξ) = CC(O)[C@H](N)C(=O)O; Nle = CCCC[C@H](N)C(=O)O

One data set addresses T1, VPAC2 receptor (Homo sapiens, UniProt P41587).
T1 construct: The human T-lymphoid cell line Sup-Ti, which expresses the VPAC2 receptor; host or cells: Sup-T1 (Sup-Ti [sic]) human T-lymphoid cell line
T1 sequence (P41587 24-438): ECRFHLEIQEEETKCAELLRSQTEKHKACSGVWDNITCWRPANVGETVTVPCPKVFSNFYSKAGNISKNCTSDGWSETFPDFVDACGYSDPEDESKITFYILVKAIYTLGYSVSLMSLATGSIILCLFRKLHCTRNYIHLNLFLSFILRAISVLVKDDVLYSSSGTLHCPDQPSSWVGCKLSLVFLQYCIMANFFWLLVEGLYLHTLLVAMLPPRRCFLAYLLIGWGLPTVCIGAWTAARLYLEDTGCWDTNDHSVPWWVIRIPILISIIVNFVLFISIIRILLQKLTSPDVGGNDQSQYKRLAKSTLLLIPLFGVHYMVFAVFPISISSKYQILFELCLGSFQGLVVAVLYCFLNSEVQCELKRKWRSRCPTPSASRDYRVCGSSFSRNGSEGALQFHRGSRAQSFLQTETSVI
Briefly: Sup-T1 cAMP agonist assay. The format is cell-based. Particulars: human T-lymphoid cell line Sup-T1 expressing VPAC2 receptor; cAMP EIA; 5 min at room temperature; read-out: Sup-T1 cAMP EC50. As for the experimental part: The human T-lymphoid cell line Sup-Ti, which expresses the VPAC2 receptor, was obtained from the American Type Culture Collection (ATCC, CRL-1942) and maintained in growth medium at densities between 0.2 and 2×10^6 cells/ml in a 37° C. CO2 incubator. The growth medium was RPMI 1640 (Invitrogen) supplemented with 25 mM HEPES buffer and 10% fetal bovine serum (Gemini Bioproducts).
To evaluate VPAC2 agonist compound activity, cells in log-phase growth were washed once with growth medium at room temperature and plated into 96-well plates at a density of 4×10^4 cells per well in 150 uL of growth medium. Fifty uL of the compounds to be tested, prepared at appropriate concentrations in growth medium, were then added to designated wells. After 5 min at room temperature, the cells were lysed by adding 25 uL of lysis reagent 1A (cAMP Biotrak EIA system, Amersham Biosciences, RPN225) to each well. The 96-well plates were kept at room temperature for 10 min with shaking and then stored at 4° C. until analysis for cAMP (within 2 hr).
Cyclic AMP levels were determined in 100 uL of each lysate using the cAMP Biotrak Enzymeimmunoassay (EIA) kit according to the manufacture's instructions (Amersham Biosciences, RPN225). The activity of each VPAC2 agonist compound (EC50 value) was estimated by fitting the 7-concentration dose response data to a sigmoidal dose-response equation provided by the GraphPad Prism program (GraphPad Software, Inc.).

In data set [1] the test system is LPS-induced lung inflammation in male C57BL/6 mice. Briefly: LPS-induced lung inflammation in male C57BL/6 mice (BAL neutrophilia). Particulars: Dose 0.01%, BAL fluid neutrophilia. Format: in vivo. As for the experimental part: C57bl/6 mice are pretreated with vehicle or drug prior to an aerosol expose to lipopolysacchride (LPS, 500 μg/ml in sterile saline) for 15-30 minutes. The aerosol is generated by a Pari Ultra neb jet nebulizer, the outlet of which is connected to a small clear plastic chamber [H×W×D, 10.7×25.7×11 cm (4×10×4.5 in)] containing the animals. Bronchoalveolar lavage (BAL) is performed 24 hr later to determine the intensity of cell inflammation. BAL procedure is performed as described below.
Mice are pretreated with vehicle or drug prior to an intranasal administration of lipopolysacchride (0.05-0.3 mg/kg in sterile saline; 50 μl total volume, 25 μl/nostril). Intranasal administration is performed by presenting small droplets of the dosing solution at the nostril using a 25-50 μl eppendorff pipet. BAL is performed 3 to 24 h post LPS challenged as described above to determine the intensity of cell inflammation.
24 h following LPS exposure, animals are anesthetized with pentobarbital (80-100 mg/kg, i.p.), ketamine/xyzaline (80-120 mg/kg/2-4 mg/kg, i.p.) or urethane (1.5-2.4 g/kg, i.p.); and through a small midline neck incision (15-20 mm), the trachea is exposed and cannulated with 20-gauge tubing adapter. Lungs are lavaged with 2×1 ml sterile Hank's balanced salt solution without Ca++ and Mg++(HBSS). Lavage fluid is recovered after 30 sec by gentle aspiration and pooled for each animal. Samples are then centrifuged at 2000 rpm for 10 minutes at 5° C. Supernatant is aspirated, and red blood cells are lysed from the resulting pellet with 0.5 ml distilled water for 30 sec before restoring osmolarity to the remaining cells by the addition of 5 ml of HBSS. Samples are recentrifuged at 2000 rpm for 10 minutes at 5° C. and supernatant aspirated. The resulting pellet is resuspended in 1 ml of HBSS. Total cell number is determined by Trypan Blue (Sigma Chemical, St. Louis, Mo.) exclusion from an aliquot of cell suspension using a hemocytometer or coulter counter. For differential cell counts, an aliquot of the cell suspension is centrifuged in a Cytospin (5 min, 1300 rpm; Shandon Southern Instruments, Sewickley, Pa.) and the slides fixed and stained with a modified Wright's stain (Hema 3 stain kit, Fisher Scientific). Standard morphological criteria is used in classifying at least 300 cells under light microscopy. Data in Table 3 is expressed as BAL cells×10^4/animal for neutrophils and total cells, or percent inhibition of the LPS induced BAL fluid neutrophilia response.

The target of data set [2] is T2, human neutrophil elastase (Homo sapiens, UniProt P08246).
T2 sequence (P08246 30-247 limits assumed): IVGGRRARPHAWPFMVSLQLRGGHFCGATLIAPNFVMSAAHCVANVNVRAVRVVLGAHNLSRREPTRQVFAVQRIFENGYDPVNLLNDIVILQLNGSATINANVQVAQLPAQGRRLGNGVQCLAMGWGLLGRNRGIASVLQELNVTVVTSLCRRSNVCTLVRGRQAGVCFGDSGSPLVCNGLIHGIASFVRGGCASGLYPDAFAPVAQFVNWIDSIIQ
Briefly: Peptide stability to neutrophil elastase (RP HPLC ESI MS). Particulars: halftime with human neutrophil elastase 1 to 2 μg/mL in PBS, ambient temperature, normalized to halftime of the reference standard.

As a reminder, the EC50 is the midpoint of the concentration-response curve. In the case of `CCCC[C@H](NC(=O)[C@H](C)NC(=O)[C@H](CCCCN)NC(=O)[C@H](CCCNC(=N)N)NC(=O)[C@H](CC(C)C)NC(=O)[C@H](CCCCN)NC(=O)[C@@H](NC(=O)[C@H](Cc1ccc(O)cc1)NC(=O)[C@H](CC(N)=O)NC(=O)[C@H](CCC(=O)O)NC(=O)[C@@H](NC(=O)[C@H](Cc1ccccc1)NC(=O)[C@H](CO)NC(=O)[C@H](C)NC(=O)[C@H](CC(=O)O)NC(=O)[C@H](CO)NC(=O)[C@H](Cc1c[nH]cn1)NC(C)=O)C(C)O)C(C)O)C(=O)N[C@@H](CCC(=O)O)C(=O)N[C@@H](C)C(=O)N[C@@H](CCCCN)C(=O)N[C@H]1CCCCNC(=O)C[C@@H](C(=O)N[C@@H](CC(C)C)C(=O)N[C@@H](CCCCN)C(=O)N[C@@H](CCCCN)C(=O)NCC(=O)NCC(=O)N[C@H](C(N)=O)C(C)O)NC(=O)[C@H](CC(N)=O)NC(=O)[C@H](CC(C)C)NC(=O)[C@H](Cc2ccc(O)cc2)NC1=O` (stereo partly drawn) [Example 10] (Ac-HSDASF[Thr(3ξ)]ENY[Thr(3ξ)]KLRKA[Nle]EAKKYLNDLKKGG[Thr(3ξ)]-NH2; lactam 21-25), the EC50 on VPAC2 receptor came out at 447 nM. Moreover, the “Inhibition of LPS-induced neutrophilia” value in data set [1] is listed as “++ (++ >30%)”. This compound also showed a Relative elastase stability in data set [2] of 7.4.

Take `CCCC[C@H](NC(=O)[C@H](CCC(N)=O)NC(=O)[C@H](CCCCN)NC(=O)[C@H](CCCNC(=N)N)NC(=O)[C@H](CC(C)C)NC(=O)[C@H](CCCCN)NC(=O)[C@@H](NC(=O)[C@H](Cc1ccc(O)cc1)NC(=O)[C@H](CC(N)=O)NC(=O)[C@H](CCC(=O)O)NC(=O)[C@@H](NC(=O)[C@H](Cc1ccccc1)NC(=O)[C@H](CO)NC(=O)[C@H](C)NC(=O)[C@H](CC(=O)O)NC(=O)[C@H](CO)NC(=O)[C@H](Cc1c[nH]cn1)NC(C)=O)C(C)O)C(C)O)C(=O)N[C@@H](C)C(=O)N[C@@H](C)C(=O)N[C@@H](CCCCN)C(=O)N[C@H]1CCCCNC(=O)C[C@@H](C(=O)N[C@@H](CC(C)C)C(=O)N[C@@H](CC(C)C)C(=O)N[C@@H](CC(N)=O)C(=O)NCC(=O)NCC(=O)N[C@H](C(N)=O)C(C)O)NC(=O)[C@H](CC(N)=O)NC(=O)[C@H](CC(C)C)NC(=O)[C@H](Cc2ccc(O)cc2)NC1=O` (stereo partly drawn) [Example 11] (Ac-HSDASF[Thr(3ξ)]ENY[Thr(3ξ)]KLRKQ[Nle]AAKKYLNDLLNGG[Thr(3ξ)]-NH2; lactam 21-25): on VPAC2 receptor, the EC50 amounted to 16.8 nM. In addition, the “Inhibition of LPS-induced neutrophilia” value in data set [1] is recorded as “++ (++ >30%)”. Besides, the Relative elastase stability in data set [2] was found to be 2.4.

`CCCC[C@H](NC(=O)[C@H](CCNCC(=N)N)NC(=O)[C@H](CCCCN)NC(=O)[C@H](CCCNC(=N)N)NC(=O)[C@H](CC(C)C)NC(=O)[C@H](CCCCN)NC(=O)[C@@H](NC(=O)[C@H](Cc1ccc(O)cc1)NC(=O)[C@H](CC(N)=O)NC(=O)[C@H](CCC(=O)O)NC(=O)[C@@H](NC(=O)[C@H](Cc1ccccc1)NC(=O)[C@H](CO)NC(=O)[C@H](C)NC(=O)[C@H](CC(=O)O)NC(=O)[C@H](CO)NC(=O)[C@H](Cc1c[nH]cn1)NC(C)=O)C(C)O)C(C)O)C(=O)N[C@@H](C)C(=O)N[C@@H](C)C(=O)N[C@@H](CCCCN)C(=O)N[C@H]1CCCCNC(=O)C[C@@H](C(=O)N[C@@H](CC(C)C)C(=O)N[C@@H](CCCCN)C(=O)N[C@@H](CCCCN)C(=O)NCC(=O)NCC(=O)N[C@H](C(N)=O)C(C)O)NC(=O)[C@H](CC(N)=O)NC(=O)[C@H](CC(C)C)NC(=O)[C@H](Cc2ccc(O)cc2)NC1=O` (stereo partly drawn) [Example 13] (Ac-HSDASF[Thr(3ξ)]ENY[Thr(3ξ)]KLRK[X1][Nle]AAKKYLNDLKKGG[Thr(3ξ)]-NH2; lactam 21-25): the EC50 on VPAC2 receptor was 17.6 nM. For the same compound, the “Inhibition of LPS-induced neutrophilia” value in data set [1] was “++ (++ >30%)”. In addition, the Relative elastase stability in data set [2] stood at 1.7.

In the case of `CCCC[C@H](NC(=O)[C@H](CCCNC(=N)N)NC(=O)[C@H](CCCCN)NC(=O)[C@H](CCCNC(=N)N)NC(=O)[C@H](CC(C)C)NC(=O)[C@H](CCCCN)NC(=O)[C@@H](NC(=O)[C@H](Cc1ccc(O)cc1)NC(=O)[C@H](CC(N)=O)NC(=O)[C@H](CCC(=O)O)NC(=O)[C@@H](NC(=O)[C@H](Cc1ccccc1)NC(=O)[C@H](CO)NC(=O)[C@H](C)NC(=O)[C@H](CC(=O)O)NC(=O)[C@H](CO)NC(=O)[C@H](Cc1c[nH]cn1)NC(C)=O)C(C)O)C(C)O)C(=O)N[C@@H](CCC(=O)O)C(=O)N[C@@H](C)C(=O)N[C@@H](CCCCN)C(=O)N[C@H]1CCCCNC(=O)C[C@@H](C(=O)N[C@@H](CC(C)C)C(=O)N[C@@H](CCCCN)C(=O)N[C@@H](CCCCN)C(=O)NCC(=O)NCC(=O)N[C@H](C(N)=O)C(C)O)NC(=O)[C@H](CC(N)=O)NC(=O)[C@H](CC(C)C)NC(=O)[C@H](Cc2ccc(O)cc2)NC1=O` (stereo partly drawn) [Example 15] (Ac-HSDASF[Thr(3ξ)]ENY[Thr(3ξ)]KLRKR[Nle]EAKKYLNDLKKGG[Thr(3ξ)]-NH2; lactam 21-25), at VPAC2 receptor, the EC50 is 117 nM. Moreover, the “Inhibition of LPS-induced neutrophilia” value in data set [1] was “+ (+ 10-30%)”. The Relative elastase stability in data set [2] came out at 4.8.

For `CCCC[C@H](NC(=O)[C@H](CCCNC(=N)N)NC(=O)[C@H](CCCCN)NC(=O)[C@H](CCCNC(=N)N)NC(=O)[C@H](CC(C)C)NC(=O)[C@H](CCCCN)NC(=O)[C@@H](NC(=O)[C@H](Cc1ccc(O)cc1)NC(=O)[C@H](CC(N)=O)NC(=O)[C@H](CCC(=O)O)NC(=O)[C@@H](NC(=O)[C@H](Cc1ccccc1)NC(=O)[C@H](CO)NC(=O)[C@H](C)NC(=O)[C@H](CC(=O)O)NC(=O)[C@H](C)NC(=O)[C@H](Cc1c[nH]cn1)NC(C)=O)C(C)O)C(C)O)C(=O)N[C@@H](CCC(=O)O)C(=O)N[C@@H](C)C(=O)N[C@@H](CCCCN)C(=O)N[C@H]1CCCCNC(=O)C[C@@H](C(=O)N[C@@H](CC(C)C)C(=O)N[C@@H](CCCCN)C(=O)N[C@@H](CCCCN)C(=O)NCC(=O)NCC(=O)N[C@H](C(N)=O)C(C)O)NC(=O)[C@H](CC(N)=O)NC(=O)[C@H](CC(C)C)NC(=O)[C@H](Cc2ccc(O)cc2)NC1=O` (stereo partly drawn) [Example 17] (Ac-HADASF[Thr(3ξ)]ENY[Thr(3ξ)]KLRKR[Nle]EAKKYLNDLKKGG[Thr(3ξ)]-NH2; lactam 21-25), the EC50 at VPAC2 receptor worked out at 23.3 nM. Also, the “Inhibition of LPS-induced neutrophilia” value in data set [1] is given as “+ (+ 10-30%)”. For the same compound, the Relative elastase stability in data set [2] is 4.6.
